For orientation: stoichiometry N means a count of units in the complex or per binding partner.

Experiment [1] deals with T1, SyCsm6 (Synechocystis sp. PCC 6803, UniProt Q6ZED6).
T1 construct: gene sll7062; full-length, His-tagged (pQE-80), E. coli BL21(DE3); encoded on plasmid pSYSA, CRISPR2 (III-D) locus
T1 sequence (Q6ZED6 1-371): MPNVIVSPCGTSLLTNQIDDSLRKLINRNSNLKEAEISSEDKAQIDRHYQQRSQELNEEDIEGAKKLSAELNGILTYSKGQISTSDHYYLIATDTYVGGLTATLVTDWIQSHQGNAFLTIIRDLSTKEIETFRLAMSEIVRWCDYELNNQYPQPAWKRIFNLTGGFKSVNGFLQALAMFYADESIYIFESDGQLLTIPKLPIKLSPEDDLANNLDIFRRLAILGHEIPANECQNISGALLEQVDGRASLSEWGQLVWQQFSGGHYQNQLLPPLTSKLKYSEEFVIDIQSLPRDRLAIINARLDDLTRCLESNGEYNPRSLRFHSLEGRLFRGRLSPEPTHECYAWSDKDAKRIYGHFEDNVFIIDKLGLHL
In words: LC-MS of cOA degradation products; coupled SyCsx1 activation assay. Conditions: ring nuclease; 667 nM cA4, 2 µM SyCsm6, 30 °C, 2 h. It is filed as biochemical.

Experiment [2] addresses T2, SyCsx1 (Synechocystis sp. PCC 6803, UniProt Q6ZED7).
T2 construct: gene slr7061; full-length, His-tagged (pQE-80), E. coli BL21(DE3); about 89 kDa by SEC, dimer; encoded on plasmid pSYSA, CRISPR2 (III-D) locus
T2 sequence (Q6ZED7 1-422): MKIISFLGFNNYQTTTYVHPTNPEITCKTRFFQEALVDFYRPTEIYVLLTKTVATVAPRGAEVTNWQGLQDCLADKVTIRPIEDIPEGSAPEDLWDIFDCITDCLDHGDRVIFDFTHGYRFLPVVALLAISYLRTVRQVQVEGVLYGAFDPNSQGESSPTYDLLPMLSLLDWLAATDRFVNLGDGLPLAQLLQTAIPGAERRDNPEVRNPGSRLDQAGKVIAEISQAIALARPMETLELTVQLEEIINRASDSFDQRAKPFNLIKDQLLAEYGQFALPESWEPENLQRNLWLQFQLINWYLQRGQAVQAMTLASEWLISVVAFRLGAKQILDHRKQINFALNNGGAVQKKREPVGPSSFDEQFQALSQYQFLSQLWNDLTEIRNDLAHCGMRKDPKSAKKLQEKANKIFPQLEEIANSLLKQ
In words: fluorogenic RNaseAlert cleavage; gel-based RNA cleavage. It is filed as biochemical. Particulars: allosteric activator binding the CARF domain; 300 nM cA4, 300 nM SyCsx1, 40 nM RNaseAlert substrate, 50 mM HEPES pH 7.5, 50 mM KCl, 1 mM DTT, 30 °C.

The target in experiment [3] is T1, SyCsm6. As to the kind of experiment: LC-MS of cOA degradation products. Particulars: ring nuclease; 667 nM cA6, 2 µM SyCsm6, 30 °C, 2 h. It counts as biochemical.
The target of experiment [4] is T2, SyCsx1. In words: fluorogenic RNaseAlert cleavage. It counts as biochemical. Conditions: activator; cFA4 preincubated at 20 nM (mock or with SyCsm6), then 300 nM SyCsx1, 20 nM RNaseAlert substrate, 30 °C.
Experiment [5] has as its target SyCsm6 (Csm6 homolog of the Synechocystis sp. PCC 6803 CRISPR2 type III-D system) (Synechocystis sp. PCC 6803). As to the kind of experiment: SEC; Superdex 200 10/300 column in 50 mM Tris pH 8.0, 150 mM NaCl, 5% glycerol; elution volume compared with the monomer's mass; monomer to dimer.
Experiment [6] concerns the target SyCsx1 (Csx1 homolog of the Synechocystis sp. PCC 6803 CRISPR2 type III-D system) (Synechocystis sp. PCC 6803). Described as above.

For the compound `Nc1ncnc2c1ncn2[C@@H]1O[C@@H]2COP(=O)(O)O[C@H]3[C@@H](O)[C@H](n4cnc5c(N)ncnc54)O[C@@H]3COP(=O)(O)O[C@H]3[C@@H](O)[C@H](n4cnc5c(N)ncnc54)O[C@@H]3COP(=O)(O)O[C@H]3[C@@H](O)[C@H](n4cnc5c(N)ncnc54)O[C@@H]3COP(=O)(O)O[C@H]2[C@H]1O` [cA4], the “LC-MS of cOA degradation products; coupled SyCsx1 activation assay” value on SyCsm6 [1] was “the substrate peak was gone and cA4 was converted to a product”. Also, the “fluorogenic RNaseAlert cleavage; gel-based RNA cleavage” value at SyCsx1 [2] is “the addition of cA4 leads to a significant increase of the fluorescence signal”. `Nc1ncnc2c1ncn2[C@@H]1O[C@@H]2COP(=O)(O)O[C@H]3[C@@H](O)[C@H](n4cnc5c(N)ncnc54)O[C@@H]3COP(=O)(O)O[C@H]3[C@@H](O)[C@H](n4cnc5c(N)ncnc54)O[C@@H]3COP(=O)(O)O[C@H]3[C@@H](O)[C@H](n4cnc5c(N)ncnc54)O[C@@H]3COP(=O)(O)O[C@H]3[C@@H](O)[C@H](n4cnc5c(N)ncnc54)O[C@@H]3COP(=O)(O)O[C@H]3[C@@H](O)[C@H](n4cnc5c(N)ncnc54)O[C@@H]3COP(=O)(O)O[C@H]2[C@H]1O` [cA6]: the “LC-MS of cOA degradation products” value at SyCsm6 [3] was “cA6 was cleaved to A2 > P and an additional product”. Consider `Nc1ncnc2c1ncn2[C@@H]1O[C@@H]2COP(=O)(O)O[C@H]3[C@@H](F)[C@H](n4cnc5c(N)ncnc54)O[C@@H]3COP(=O)(O)O[C@H]3[C@@H](F)[C@H](n4cnc5c(N)ncnc54)O[C@@H]3COP(=O)(O)O[C@H]3[C@@H](F)[C@H](n4cnc5c(N)ncnc54)O[C@@H]3COP(=O)(O)O[C@H]2[C@H]1F` [cFA4], for which, at SyCsx1 [4], the “fluorogenic RNaseAlert cleavage” value is “cFA4 is a less potent activator of SyCsx1 as seen by the slower substrate turnover”. “SyCsm6 (Csm6 homolog of the Synechocystis sp. PCC 6803 CRISPR2 type III-D system) (enzyme)”: the stoichiometry N in experiment [5] was found to be 2.

For the compound “SyCsx1 (Csx1 homolog of the Synechocystis sp. PCC 6803 CRISPR2 type III-D system) (enzyme)”, in experiment [6], the stoichiometry N turned out to be 2.

These data come from publication PMC9676260, “Enzymatic properties of CARF-domain proteins in Synechocystis sp. PCC 6803” (Frontiers in Microbiology, 2022).
